This note sets out measurements from patent publication US20250304559A1, “Ether-Linked Antiviral Compounds” (Pfizer Inc., priority 2021, published 2025).

In one assay the target is T1, SARS-CoV-2 3CL protease (Severe acute respiratory syndrome coronavirus 2, UniProt P0DTD1).
T1 construct: measures the activity of full-length SARS-CoV-2 3CL protease
As to the kind of experiment: SARS-CoV-2 Coronavirus 3C Protease FRET Assay. It is filed as biochemical. The following applies: Examples 14-78 and 114 (second head of Table 2); Morrison equation fit, 15 nM enzyme, 25 μM peptide substrate; read-out: Geometric Mean Ki (nM) IC50.

Assay [1] has as its system SARS-CoV-2 (USA_WA1/2020). The assay is described as follows: Antiviral Activity from SARS-CoV-2 Infection (cytopathic effect, Cell Titer-Glo). It is filed as cell-based. The following applies: VeroE6 cells enriched for hACE2, MOI 0.002, 3-day incubation, tested alone or with P-gp inhibitor CP-100356 2 μM (table does not say which), read-out: Geometric Mean EC50. (In general: Cytopathic effects are the visible damage that an infection or toxin causes in cultured cells.)

[2] abbreviates: Severe acute respiratory syndrome coronavirus 2, Vero C1008, 72 h.

Read-outs that look alike come from different tables or passages of the source.

In general, Ki refers to a dissociation constant, usually derived from enzyme kinetics or from competition with a known ligand. What is called EC50 is the concentration that produces a half-maximal response. In the case of `CC(C)[C@H](NS(C)(=O)=O)C(=O)N1CCC(C)(C)CC1C(=O)N[C@@H](C[C@@H]1CCNC1=O)C(=O)COc1ccc(F)cc1F` (single isomer, unassigned) [Example 60, (2R*)-N-{(2S)-4-(2,4-difluorophenoxy)-3-oxo-1-[(3S)-2-oxopyrrolidin-3-yl]butan-2-yl}-1-[N-(methanesulfonyl)-L-valyl]-4,4-dimethylpiperidine-2-carboxamide], the inhibition constant (Ki) at SARS-CoV-2 3CL protease is 21.8 nM. Besides, the 50% effective concentration (EC50) in assay [1] (setting [2]) was 0.456 µM.

As to `CC(C)C[C@@H](C(=O)N1C[C@H]2[C@@H]([C@H]1C(=O)N[C@@H](C[C@@H]1CCNC1=O)C(=O)COc1cc(C(F)(F)F)nn1C)C2(C)C)N(C)C(C)C` (single isomer, unassigned) [Example 65, (1R,2S,5S)-6,6-dimethyl-3-[N-methyl-N-(propan-2-yl)-L-leucyl]-N-{(2R*)-4-{[1-methyl-3-(trifluoromethyl)-1H-pyrazol-5-yl]oxy}-3-oxo-1-[(3S)-2-oxopyrrolidin-3-yl]butan-2-yl}-3-azabicyclo[3.1.0]hexane-2-carboxamide, DIAST-1], the Ki at SARS-CoV-2 3CL protease was determined as 96.7 nM. Also, in assay [1] (setting [2]), the EC50 was found to be 0.133 µM.

Regarding `CC(C)[C@H](NS(C)(=O)=O)C(=O)N1CCC2(CC2)C[C@H]1C(=O)N[C@@H](C[C@@H]1CCNC1=O)C(=O)COc1ccc(F)cc1F` (single isomer, unassigned) [Example 66, (5R*)-N-{(2S)-4-(2,4-difluorophenoxy)-3-oxo-1-[(3S)-2-oxopyrrolidin-3-yl]butan-2-yl}-6-[N-(methanesulfonyl)-L-valyl]-6-azaspiro[2.5]octane-5-carboxamide, DIAST-2], the inhibitory constant (Ki) at SARS-CoV-2 3CL protease is 15.7 nM. For the same compound, in assay [1], the EC50 stood at 0.669 µM.

`CC(C)C[C@@H](C(=O)N1C[C@H]2[C@@H]([C@H]1C(=O)N[C@@H](C[C@@H]1CCNC1=O)C(=O)COc1cc(C(F)(F)F)nn1C)C2(C)C)N(C)C(C)C` (single isomer, unassigned) [Example 73, (1R,2S,5S)-6,6-dimethyl-3-[N-methyl-N-(propan-2-yl)-L-leucyl]-N-{(2R*)-4-{[1-methyl-3-(trifluoromethyl)-1H-pyrazol-5-yl]oxy}-3-oxo-1-[(3S)-2-oxopyrrolidin-3-yl]butan-2-yl}-3-azabicyclo[3.1.0]hexane-2-carboxamide, DIAST-2]: the inhibition constant Ki at SARS-CoV-2 3CL protease is 962 nM. For the same compound, the 50% effective concentration (EC50) in assay [1] was 0.14 µM.

On to `COCC(=O)[C@H](C[C@@H]1CCNC1=O)NC(=O)C1C[C@H](C(C)(C)C)CCN1C(=O)[C@@H](NS(=O)(=O)C(F)(F)F)C(C)C` (single isomer, unassigned) [Example 77, (2R*,4S*)-4-tert-butyl-N-{(2S)-4-methoxy-3-oxo-1-[(3S)-2-oxopyrrolidin-3-yl]butan-2-yl}-1-[N-(trifluoromethanesulfonyl)-L-valyl]piperidine-2-carboxamide, DIAST-2], for which the Ki at SARS-CoV-2 3CL protease is above 10800 nM. Besides, in assay [1] (setting [2]), the concentration for a half-maximal effect (EC50) was above 100 µM.

`CCC(C(NC(=O)C(F)(F)F)C(=O)N1C[C@H]2[C@@H]([C@H]1C(=O)N[C@@H](C[C@@H]1CCNC1=O)C(=O)COc1ccc(F)cc1F)C2(C)C)C(F)(F)F` (stereo in doubt) [Example 32, (1R,2S,5S)-N-{(2S)-4-(2,4-difluorophenoxy)-3-oxo-1-[(3S)-2-oxopyrrolidin-3-yl]butan-2-yl}-6,6-dimethyl-3-[3′,3′,3′-trifluoro-N-(trifluoroacetyl)-L-isoleucyl]-3-azabicyclo[3.1.0]hexane-2-carboxamide]: the Ki on SARS-CoV-2 3CL protease was 2.42 nM. Besides, the EC50 in assay [1] (setting [2]) is 0.0989 µM.

For `CCC([C@H](NC(=O)C(F)(F)F)C(=O)N1C[C@H]2[C@@H]([C@H]1C(=O)N[C@@H](C[C@@H]1CCNC1=O)C(=O)COc1ccc(F)cc1F)C2(C)C)C(F)(F)F` (stereo in doubt) [Example 57, (1R,2S,5S)-N-{(2S)-4-(2,4-difluorophenoxy)-3-oxo-1-[(3S)-2-oxopyrrolidin-3-yl]butan-2-yl}-6,6-dimethyl-3-[3′,3′,3′-trifluoro-N-(trifluoroacetyl)-L-isoleucyl]-3-azabicyclo[3.1.0]hexane-2-carboxamide], at SARS-CoV-2 3CL protease, the inhibitory constant (Ki) was 17.3 nM. In addition, in assay [1] (setting [2]), the 50% effective concentration (EC50) is 0.275 µM.
